The results in this text go back to US20250179057A1, “MEK IMMUNE ONCOLOGY INHIBITORS AND THERAPEUTIC USES THEREOF” (Immuneering Corporation, priority 2022, published 2025).

Some results are limits rather than exact numbers.

The nature of one data set: PAMPA (pH 7.4). Format: in vitro ADME. Conditions: PAMPA; pH = 7.4 (Table 14).
In data set [1] the test system is phospho-ERK in A549 (KRAS G12S) cells. In words: Cell-based pERK (pERK:tERK) in A549 cells. Conditions: for activity at 0.01 µM: Homo sapiens, A549, 2 h, read-out: A549-pERK (10 nM, 2 h); for pERK:tERK (10 nM 2 h A549): Phospho-ERK Screen in A549 (KRAS G12S), head 10 nM 2 h, title 10 μM for 2 hours. A digest of the protocol: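 Readout was pERK versus tERK by Western blot with IRDye-labelled secondary antibodies, imaged and quantified on a LI-COR Odyssey. Lysates were loaded at 1 mg/mL protein after Bradford estimation.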

For another data set, the target named is hERG (Homo sapiens, UniProt Q12809). In words: cell-based. As for the experimental part:
Materials and Methods: CHO cells (transformed with adenovirus 5 DNA; Stably transfected with full length hERG cDNA) were cultured in Ham's F-12 supplemented with 10% fetal bovine serum, 100 U/mL penicillin G sodium, 100 μg/mL streptomycin sulfate and 400 μg/mL Zeocin. Before testing, cells in culture dishes were rinsed with Hank's Balanced Salt Solution, detached with accutase.
HEPES-buffered intracellular solution (Charles River proprietary) for whole cell recordings was loaded into the intracellular compartment of the SP384PE. Extracellular buffer (HB-PS) and Cell suspension (in HB-PS) were pipetted into the extracellular compartment of the SP384PE chip. After establishment of a whole-cell configuration, membrane currents were recorded using patch clamp amplifier in the SP384PE system.
Test article (TA) concentrations (eight (8) concentrations of each test article were evaluated) were applied to naïve cells (n=4, where n=replicates/concentration). Each application consisted of addition of 40 μL of 2× concentrated test article solution to the total 80 μL of final volume of the extracellular well of the SP384PE chip. Duration of exposure to each compound concentration was five (5) minutes.
hERG current was measured using stimulus voltage patterns with fixed amplitudes: activation pre-pulse (TP1) to +40 mV for 2 s and test pulse (TP2) to −40 mV for 2 s from a holding potential of −80 mV. hERG current was measured as the outward peak current at TP2 (tail current). The stimulation was repeated with 0.1 Hz frequency during 2 min as baseline and 5 min after TA application.
Data acquisition and analyses were performed using the SP384PE system operation software. The decrease in current amplitude after TA application was used to calculate the percent block relative to control.
Tonic Block effect was calculated as:
[formula] • where ITP2, baseline and ITP2, TA were the outward peak K^+ currents elicited by the TP2 before application and 5 min after application of a test article, respectively.
The data were corrected for run-down:
[formula] • where % VC and % PC were the mean values of the current block with the vehicle and positive controls, respectively.
Concentration-response data were fitted to an equation of the following form:
[formula] • where [Test] was the concentration of test article, IC50 was the concentration of the test article producing half-maximal block, N was the Hill coefficient, % VC was the mean current block at the vehicle control and % Block was the percentage of ion channel current inhibited at each concentration of a test article. Nonlinear least squares fits were solved with the XLfit add-in for Excel (Microsoft, Redmond, WA).
In this study, hERG Ion channel block of IC50 values were determined. […] In brief, CHO cells were cultured in Ham's F-12 supplemented with 10% fetal bovine serum, 100 U/mL penicillin G sodium, 100 μg/mL streptomycin sulfate and 400 μg/mL Zeocin. Before testing, cells in culture dishes were rinsed with Hank's Balanced Salt Solution, detached with accutase. […] Test article (TA) concentrations were applied to naïve cells (n=4, where n=replicates/concentration). Each application consisted of addition of 40 μL of 2× concentrated test article solution to the total 80 μL of final volume of the extracellular well of the SP384PE chip. Duration of exposure to each compound concentration was five (5) minutes. hERG current was measured using stimulus voltage patterns with fixed amplitudes: activation pre-pulse (TP1) to +40 mV for 2 s and test pulse (TP2) to −40 mV for 2 s from a holding potential of −80 mV. hERG current was measured as the outward peak current at TP2 (tail current). The stimulation was repeated with 0.1 Hz frequency during 2 min as baseline and 5 min after TA application. Data acquisition and analyses were performed using the SP384PE system operation software.

Data set [2] is described as follows: Plasma stability, mouse plasma (Balb/c; Table 5 head CD-1 Mouse). Conditions: 2 μM; plasma; 2 hour. Format: in vitro ADME.
A short description of data set [3]: Plasma stability, human plasma (K2EDTA). Format: in vitro ADME. Conditions: 2 μM; plasma; 2 hour. How it is done:
(§1) Individual stock solutions of propantheline and lovastatin were prepared at 10 mM in DMSO and were further diluted to 2 mM with DMSO.
(§2) Frozen matrices (Balb/c mouse, Wistar Han rat, Beagle dog, and human plasma containing K2EDTA as anti-coagulant) were thawed and centrifuged at 3100 rpm for 10 minutes at 4° C. to remove particulates. The lipid layer was then removed, and the supernatant was transferred to a new tube without disturbing the pellet. After the matrices were incubated at 37° C. for at least 10 minutes, the pH of each matrix was adjusted to pH 7.4, using 10% phosphoric acid or 1N sodium hydroxide as necessary. Test and control article stock solutions were spiked (2 μL) into matrix (1.998 mL) and mixed to final assay concentration of […]. Duplicate 30-μL aliquots of spiked plasma were transferred to matrix tubes in 96-well plate immediately after spiking for timepoints of 0, 30, 60, 120, 240, and 360 minutes. These tubes were then incubated at 37° C. with shaking and at each timepoint, the corresponding tubes containing samples were quenched with 180 μL of cold acetonitrile containing the internal standards. The quenched samples were vortex-mixed briefly and stored refrigerated. After the final time point (360 minutes), the plates with all quenched samples were vortex-mixed for 10 minutes and then centrifuged at 3100 rpm for 10 minutes at 4° C. to sediment the precipitated protein. The supernatant (50 μL) was transferred to a clean 96-well plate and diluted with 100 μL of water. The plates were stored refrigerated until analysis.
(§3) Data Analysis: Peak area ratios for IS-normalized test article and control article counts were used to calculate the percent remaining relative to the time zero (T0) value. As appropriate, results were plotted and further analyzed to calculate half-life (T1/2) values.
(§4) Mean peak area ratios were used to calculate the % remaining relative to the T0 value:
(§5) In this study, human, cynomolgus monkey, beagle dog, wistar hannover rat, and balb/c plasma stability was determined. Table 28 describes the results of the human plasma stability at 2 μM concentration and anti-coagulant K2-EDTA from 10 to 120 min. Table 29 describes the results of the cynomolgus monkey plasma stability at 2 μM concentration and anti-coagulant K2-EDTA. Table 30 describes the results of the beagle dog plasma stability at 2 μM concentration and anti-coagulant K2-EDTA. Table 31 describes the results of the wistar hannover rat plasma stability at 2 μM concentration and anti-coagulant K2-EDTA. Table 32 describes the results of the balb/c plasma stability at 2 μM concentration and anti-coagulant K2-EDTA.

Data set [4] is described as follows: Plasma stability, beagle dog plasma (K2EDTA). Format: in vitro ADME. Conditions: 2 μM; plasma; 2 hour. As for the experimental part:
as §1, §2, §3, §4, §5

The target of another data set is CYP2C19 (Homo sapiens, UniProt P33261). In words: in vitro. Conditions: pooled liver microsomes, pH 7.4, probe mephenytoin.
A further data set concerns the target T1, CYP2C8 (Homo sapiens, UniProt P10632).
T1 sequence (P10632 1-490): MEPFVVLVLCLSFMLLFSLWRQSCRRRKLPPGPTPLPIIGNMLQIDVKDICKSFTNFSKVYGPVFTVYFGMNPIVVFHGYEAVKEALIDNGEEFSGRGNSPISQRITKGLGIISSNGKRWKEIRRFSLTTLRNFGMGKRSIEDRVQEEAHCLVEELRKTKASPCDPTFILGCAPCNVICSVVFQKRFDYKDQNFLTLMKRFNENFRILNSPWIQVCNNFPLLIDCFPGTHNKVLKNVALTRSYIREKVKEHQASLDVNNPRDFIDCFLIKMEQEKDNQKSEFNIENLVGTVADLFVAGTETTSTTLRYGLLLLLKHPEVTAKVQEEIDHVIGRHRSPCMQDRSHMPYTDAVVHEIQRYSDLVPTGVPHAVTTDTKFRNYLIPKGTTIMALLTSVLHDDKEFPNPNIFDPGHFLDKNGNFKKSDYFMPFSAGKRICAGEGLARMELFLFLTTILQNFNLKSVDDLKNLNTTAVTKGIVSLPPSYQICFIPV
In words: in vitro. Conditions: pooled liver microsomes, pH 7.4, probe amodiaquine. For orientation: Microsomes from liver hold many membrane-bound enzymes, among them those of drug oxidation.

The target of another data set is CYP2D6 (Homo sapiens, UniProt P10635). In words: CYP450 panel inhibition in human liver microsomes, 2D6 (dextromethorphan). Conditions: control dose 1 μM, substrate dextromethorphan.
A further data set can be described thus: in vitro. Conditions: human.
Where [5] appears, read: Caco-2, Mean (B-A/A-B) (Efflux Ratio).
Where [6] appears, read: Caco-2, Mean Papp A − B (10^−6 cm/s).
Setting [7] is: Caco-2, Mean Papp A-B (10^-6 cm/s).
Setting [8] is: Caco-2, Mean Papp B − A (10^−6 cm/s).
[9] abbreviates: Caco-2, Mean Papp B-A (10^-6 cm/s).

hERG, sequence (Q12809 whole entry): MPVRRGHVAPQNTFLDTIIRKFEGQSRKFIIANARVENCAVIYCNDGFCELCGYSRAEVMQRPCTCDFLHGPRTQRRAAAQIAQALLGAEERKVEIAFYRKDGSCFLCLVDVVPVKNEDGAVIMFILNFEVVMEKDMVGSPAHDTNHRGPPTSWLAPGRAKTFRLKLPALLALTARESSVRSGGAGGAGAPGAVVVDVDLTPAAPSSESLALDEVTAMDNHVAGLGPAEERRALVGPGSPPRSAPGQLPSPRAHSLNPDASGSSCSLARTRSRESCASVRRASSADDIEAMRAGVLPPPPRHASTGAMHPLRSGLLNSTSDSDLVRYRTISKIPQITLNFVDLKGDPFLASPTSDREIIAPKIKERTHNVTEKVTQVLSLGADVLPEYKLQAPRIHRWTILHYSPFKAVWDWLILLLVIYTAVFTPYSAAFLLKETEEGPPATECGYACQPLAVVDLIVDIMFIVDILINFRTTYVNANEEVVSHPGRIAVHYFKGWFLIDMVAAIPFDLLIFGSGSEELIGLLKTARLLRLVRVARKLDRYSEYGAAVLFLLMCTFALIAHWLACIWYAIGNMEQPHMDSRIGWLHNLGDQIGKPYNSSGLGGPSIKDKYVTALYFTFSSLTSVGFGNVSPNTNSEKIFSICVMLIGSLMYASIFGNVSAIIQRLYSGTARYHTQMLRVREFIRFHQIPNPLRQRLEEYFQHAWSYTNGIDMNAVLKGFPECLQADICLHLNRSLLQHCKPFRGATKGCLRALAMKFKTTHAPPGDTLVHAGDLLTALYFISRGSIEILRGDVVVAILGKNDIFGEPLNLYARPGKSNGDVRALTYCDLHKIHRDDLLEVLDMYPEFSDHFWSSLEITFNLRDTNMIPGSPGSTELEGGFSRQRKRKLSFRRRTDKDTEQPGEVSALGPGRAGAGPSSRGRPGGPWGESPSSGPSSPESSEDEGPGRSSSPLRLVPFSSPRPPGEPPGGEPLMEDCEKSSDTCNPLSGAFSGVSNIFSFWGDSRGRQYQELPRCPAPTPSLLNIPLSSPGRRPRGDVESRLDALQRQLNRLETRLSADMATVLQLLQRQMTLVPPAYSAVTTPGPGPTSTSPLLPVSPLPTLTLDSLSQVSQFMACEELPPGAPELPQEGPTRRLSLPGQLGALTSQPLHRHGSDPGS
CYP2D6, sequence (P10635 whole entry): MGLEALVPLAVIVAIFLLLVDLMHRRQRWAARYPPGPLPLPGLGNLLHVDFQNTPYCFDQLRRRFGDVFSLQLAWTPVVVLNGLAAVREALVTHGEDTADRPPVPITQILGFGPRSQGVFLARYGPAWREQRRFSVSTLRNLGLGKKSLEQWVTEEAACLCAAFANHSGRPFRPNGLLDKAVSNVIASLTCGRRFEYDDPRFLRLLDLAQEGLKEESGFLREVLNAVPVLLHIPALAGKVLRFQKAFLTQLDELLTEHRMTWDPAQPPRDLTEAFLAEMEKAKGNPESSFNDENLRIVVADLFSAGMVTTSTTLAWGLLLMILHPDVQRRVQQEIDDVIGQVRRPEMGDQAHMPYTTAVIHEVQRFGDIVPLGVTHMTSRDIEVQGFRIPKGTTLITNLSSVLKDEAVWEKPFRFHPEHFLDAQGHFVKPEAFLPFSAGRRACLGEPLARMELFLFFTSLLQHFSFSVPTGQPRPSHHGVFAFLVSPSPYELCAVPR
CYP2C19, sequence (P33261 whole entry): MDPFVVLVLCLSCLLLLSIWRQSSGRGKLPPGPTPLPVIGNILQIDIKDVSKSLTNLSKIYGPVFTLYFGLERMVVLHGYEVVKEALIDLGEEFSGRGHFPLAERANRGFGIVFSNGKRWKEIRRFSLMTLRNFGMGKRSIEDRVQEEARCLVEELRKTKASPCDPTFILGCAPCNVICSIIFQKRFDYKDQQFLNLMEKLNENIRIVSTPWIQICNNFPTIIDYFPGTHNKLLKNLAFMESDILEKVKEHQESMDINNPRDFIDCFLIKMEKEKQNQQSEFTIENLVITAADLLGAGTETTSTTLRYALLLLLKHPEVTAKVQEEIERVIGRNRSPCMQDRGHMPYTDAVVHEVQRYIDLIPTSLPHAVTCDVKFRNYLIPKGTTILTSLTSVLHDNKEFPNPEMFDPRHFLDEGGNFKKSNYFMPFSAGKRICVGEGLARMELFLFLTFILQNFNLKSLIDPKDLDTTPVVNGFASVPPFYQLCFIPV
Protocol for PAMPA (pH 7.4): Each stock solution was diluted to 50 M in pH 7.4 Prisma HT buffer (pION) and 200 μl was added to each well of the donor plate in triplicate. The polyvinylidene fluoride (PVDF, 0.45 μm) filter membrane on the acceptor plate was coated with 5 μl gastrointestinal tract lipid formulation (GIT-0, pION) and to each well of the acceptor plate, 200 μl of acceptor sink buffer (pION) was added. The acceptor filter plate was then carefully placed on top of the donor plate to form a sandwich. The sandwich was incubated at 25° C. for 4 h without stirring. UV-vis spectra of the solutions in the blank, reference, acceptor and donor plates were measured using a microplate reader (Tecan Infinite 200PRO M Nano Plus). Permeability values were calculated using the PAMPA explorer software v.

By Papp is commonly meant a coefficient for how fast a substance crosses the barrier. One may read the IC50 as the midpoint of a concentration-inhibition curve. Regarding `CNS(=O)(=O)Nc1cccc(Cc2c(CN3CCNCC3)c3cc(F)c(OC(=O)N(C)C)cc3oc2=O)c1Cl` [Compound 254, 3-(2-chloro-3-((N-methylsulfamoyl)amino)benzyl)-6-fluoro-2-oxo-4-(piperazin-1-ylmethyl)-2H-chromen-7-yl dimethylcarbamate], in the data set “PAMPA (pH 7.4)”, the Papp at 4 h, 50 μM is 2 ×10⁻⁶ cm/s. Moreover, in [1], the activity at 0.01 µM worked out at 26.8% and the “pERK:tERK (10 nM 2 h A549)” value was 27. At hERG, the IC50 is more than 30 µM.
The corresponding values for `CCS(=O)(=O)Nc1cccc(Cc2c(CN3CCNCC3)c3cc(F)c(OC(=O)N(C)C)cc3oc2=O)c1Cl` [Compound 255, 3-(2-chloro-3-(ethylsulfonamido)benzyl)-6-fluoro-2-oxo-4-(piperazin-1-ylmethyl)-2H-chromen-7-yl dimethylcarbamate] are 5 ×10⁻⁶ cm/s, 37.1%, 37 and 18.1 µM.
For the compound `CC[C@H](C)C(=O)O[C@H]1C[C@@H](C)C=C2C=C[C@H](C)[C@H](CC[C@@H]3C[C@@H](O)CC(=O)O3)[C@H]21` [Lovastatin, reference compound], in data set [2], the “CD-1 Mouse (% Reamining @2 hour)” value was 0.6%. The “Human (% Reamining @2 hour)” value in data set [3] was found to be 81.8%. The “Beagle Dog (% Reamining @2 hour)” value in [4] turned out to be 94.1%.
One may read the inhibition as the change of the read-out against control, counted positive when it falls. A higher inhibition goes with a strong effect. In turn, `COc1ccc2[nH]c([S+]([O-])Cc3ncc(C)c(OC)c3C)nc2c1` (stereo not drawn) [Omeprazole, reference compound] yielded an inhibition at 30 min, 10 µM on CYP2C19 of 60.7%.
For `O=c1c(O)c(-c2ccc(O)c(O)c2)oc2cc(O)cc(O)c12` [Quercetin, reference compound], the inhibition at 30 min, 10 µM against CYP2C8 came to 88.3%.
`C=C[C@H]1C[N@@]2CC[C@H]1C[C@@H]2[C@@H](O)c1ccnc2ccc(OC)cc12` [Quinidine, reference compound]: the “CYP-2D6 (Dextromethorphan) mean percentage CYP inhibition, control” value on CYP2D6 is 93.1%.
The efflux ratio is the permeability from basolateral to apical divided by that in the opposite direction, in the common usage. Usually Papp A→B stands for how fast a substance crosses the layer from the apical side. A higher Papp A→B goes with fast passage. The Papp B→A is how fast a substance crosses the layer from the basolateral side. For `CNC(=C[N+](=O)[O-])NCCSCc1ccc(CN(C)C)o1` [Ranitidine], the efflux ratio at 2 h, 10 μM turned out to be 4.06 in “in vitro” (setting [5]) and 2.89 in “in vitro” (Caco-2, Mean Efflux Ratio). The figures for the Papp A→B at 2 h, 10 μM in “in vitro” (setting [6]) and in the data set “in vitro” (setting [7]) were 0.407 ×10⁻⁶ cm/s and 0.347 ×10⁻⁶ cm/s, respectively. Besides, the apparent permeability from basolateral to apical (Papp B→A) at 2 h, 10 μM turned out to be 1.18 ×10⁻⁶ cm/s in “in vitro” (setting [8]) and 1.41 ×10⁻⁶ cm/s in “in vitro” (setting [9]). Also, the “A − B Permeability Ranking” value in the data set with Caco-2 cells is “Lower”. In addition, the “A-B Permeability Ranking” value with Caco-2 cells was “Low”.
Turning to `CC(=O)CC(c1ccccc1)c1c(O)c2ccccc2oc1=O` (stereo not drawn) [Warfarin], the efflux ratio at 2 h, 10 μM in the data set “in vitro” (setting [5]) was 0.726; in “in vitro” (Caco-2, Mean Efflux Ratio), 0.513. The Papp A→B at 2 h, 10 μM stood at 40.5 ×10⁻⁶ cm/s in the data set “in vitro” (setting [6]) and 36.6 ×10⁻⁶ cm/s in the data set “in vitro” (setting [7]). The Papp B→A at 2 h, 10 μM is 20.8 ×10⁻⁶ cm/s in the data set “in vitro” (setting [8]) and 26.6 ×10⁻⁶ cm/s in “in vitro” (setting [9]). In the data set on Caco-2 cells, the “A − B Permeability Ranking” value was “Higher”. Moreover, the “A-B Permeability Ranking” value in the data set with Caco-2 cells is on record as “High”.
